Like-named read-outs stand apart in the source and are kept apart here.
What was measured:
SRPK1 = SRPK1 (Homo sapiens (Human), UniProt Q96SB4); assay: SRPK1 inhibitory activity; format: biochemical
H3122 cells (NSCLC) = format: cell-based; conditions: Homo sapiens
SRPK2 = SRPK2 (Homo sapiens (Human), UniProt P78362); assay: SRPK2 inhibitory activity; format: biochemical
[1] = system: DFCI76 (L1152R) cells (NSCLC); format: cell-based; conditions: read-out: IC50 Tumor Cell Line DFCI76 (L1152R)
[2] = target: CD74-ROS transduced Ba/F3 cells (Homo sapiens, UniProt P08922); assay: Ba/F3 proliferation assay; format: cell-based; conditions: read-out: IC50 Ba/F3 CD74-ROS; Table 6
Text: (§1) The MTS assay is a colorimetric method for determining the number of viable cells that is based on the bioreduction of MTS by cells to a formazan product that is soluble in cell culture medium and can be detected spectrophotometrically. […] All experimental points were set up in six wells and all experiments were repeated at least three times. […] The curves were fitted using a non-linear regression model with a sigmoidal dose response.

[3] = system: mutant EGFR PC9 cell line; conditions: in words
Experimental: Cell viability was evaluated using CellTiter-Glo Luminescent Cell Viability Assay (Promega) following manufacturer's instruction. IC50 values were calculated by nonlinear regression (variable slope) using GraphPad Prism 5 software. Each experiment was repeated for at least twice.

[4] = target: del19EGFR transduced Ba/F3 cells (Homo sapiens, UniProt P00533, cells depend on it, form not given); assay: Ba/F3 proliferation assay; format: cell-based; conditions: read-out: IC50 Ba/F3 del19EGFR; Table 6
[5] = system: EML4-ALK^G1202R transformed Ba/F3 cells; assay: Ba/F3 single point inhibition assay (MTS); format: cell-based; conditions: single dose 1 μM, 72 hours
Text: as §1

[6] = target: EML4-ALK^WT transformed Ba/F3 cells (Homo sapiens, UniProt Q9UM73); assay: Ba/F3 dose escalation MTS viability assay; conditions: read-out: IC50 wt, 72 hours
Text: as §1
(§2) Untransduced Ba/F3 control was used as a cytotoxicity control.

[7] = target: EML4-ALK S1206Y transformed Ba/F3 cells (Homo sapiens, UniProt Q9UM73, S1206Y, cells depend on it); assay: Ba/F3 dose escalation MTS viability assay; format: cell-based; conditions: 72 hours
Text: as §1, §2

[8] = target: EML4-ALK G1269A transformed Ba/F3 cells (Homo sapiens, UniProt Q9UM73, G1269A, cells depend on it); assay: Ba/F3 dose escalation MTS viability assay; format: cell-based; conditions: 72 hours
Text: as §1, §2

[9] = target: EML4-ALK C1156Y transformed Ba/F3 cells (Homo sapiens, UniProt Q9UM73, C1156Y, cells depend on it); assay: Ba/F3 dose escalation MTS viability assay; format: cell-based; conditions: 72 hours
Text: as §1, §2

[10] = system: EML4-ALK wt transformed Ba/F3 cells; assay: Ba/F3 single point inhibition assay (MTS); format: cell-based; conditions: single dose 1 μM, 72 hours
Text: as §1

[11] = target: EML4-ALK L1196M transformed Ba/F3 cells (Homo sapiens, UniProt Q9UM73, L1196M, cells depend on it); assay: Ba/F3 dose escalation MTS viability assay; conditions: read-out: IC50 L1196M, 72 hours
Text: as §1, §2

[12] = target: EML4-ALK G1202R transformed Ba/F3 cells (Homo sapiens, UniProt Q9UM73, G1202R, cells depend on it); assay: Ba/F3 dose escalation MTS viability assay; format: cell-based; conditions: 72 hours
Text: as §1, §2

[13] = target: EML4-ALK L1152R transformed Ba/F3 cells (Homo sapiens, UniProt Q9UM73, L1152R, cells depend on it); assay: Ba/F3 dose escalation MTS viability assay; format: cell-based; conditions: 72 hours
Text: as §1, §2

[14] = mouse, in vivo, iv, 2 mg/kg, 8 h
panel of 456 kinases = assay: KINOMESCAN kinase selectivity profiling; format: binding; conditions: screened at 1 μM

| Compound | IC50 (SRPK1) | IC50 (SRPK2) | Percent viability of untreated control, G1202R [5] | IC50 [6] | IC50 [7] | IC50 [8] | IC50 [9] | Percent viability of untreated control, wt [10] | IC50 [11] | IC50 [12] | IC50 [13] | further results |
| --- | --- | --- | --- | --- | --- | --- | --- | --- | --- | --- | --- | --- |
| CCc1cc2c(cc1N1CCC(N3CCOCC3)CC1)C(C)(C)c1[nH]c3cc(C#N)ccc3c1C2=O [Alectinib] | 11 nM | 28.2 nM | – | – | – | – | – | – | – | – | – | IC50 (H3122 cells (NSCLC); NCI-H3122, read-out: IC50 Tumor Cell Line H3122): 7 ± 4 nM; IC50 [1]: 26 ± 27 nM |
| Cc1cc(Nc2ncc(Cl)c(Nc3ccccc3S(=O)(=O)C(C)C)n2)c(OC(C)C)cc1C1CCNCC1 [Ceritinib] | – | – | – | – | – | – | – | – | – | – | – | IC50 (H3122 cells (NSCLC); NCI-H3122, Table 6, read-out: IC50 Tumor Cell Line H3122): 13 ± 5 nM |
| CCc1cc2c(cc1-c1cnn(CC(=O)N(C)C)c1)C(C)(C)c1[nH]c3cc(C#N)ccc3c1C2=O [Compound 6, 2-(4-(3-cyano-9-ethyl-6,6-dimethyl-11-oxo-6,11-dihydro-5H-benzo[b]carbazol-8-yl)-1H-pyrazol-1-yl)-N,N-dimethylacetamide] | – | – | – | – | – | – | – | – | – | – | – | IC50 [2]: 678 ± 109 nM; inhibition of mutant EGFR PC9 cell line [3]: not inhibited; IC50 [4]: 281 ± 1 nM |
| CCc1cc2c(cc1-c1cnoc1)C(C)(C)c1[nH]c3cc(C#N)ccc3c1C2=O [Compound 10, 9-ethyl-8-(isoxazol-4-yl)-6,6-dimethyl-11-oxo-6,11-dihydro-5H-benzo[b]carbazole-3-carbonitrile] | 5.09 nM | 14.5 nM | 3% | 59 nM | 728 nM | 186 nM | 116 nM | 2% | 634 nM | 80 nM | 345 nM | – |
| CCc1cc2c(cc1-c1cnn[nH]1)C(C)(C)c1[nH]c3cc(C#N)ccc3c1C2=O [Compound 13, 9-ethyl-6,6-dimethyl-11-oxo-8-(1H-1,2,3-triazol-5-yl)-6,11-dihydro-5H-benzo[b]carbazole-3-carbonitrile] | 0.884 nM | 7.46 nM | 7% | 115 nM | 1610 nM | 256 nM | 177 nM | 6% | 629 nM | 214 nM | 345 nM | – |
| CCc1cc2c(cc1-c1cnn(CCN(C)C)c1)C(C)(C)c1[nH]c3cc(C#N)ccc3c1C2=O [Compound 31, 8-(1-(2-(dimethylamino)ethyl)-1H-pyrazol-4-yl)-9-ethyl-6,6-dimethyl-11-oxo-6,11-dihydro-5H-benzo[b]carbazole-3-carbonitrile] | 1.91 nM | 6.6 nM | 1% | 2 nM | 6 nM | 11 nM | 24 nM | 1% | 80 nM | 8 nM | 548 nM | – |
| CCc1cc2c(cc1-c1cnn(CCCN(C)C)c1)C(C)(C)c1[nH]c3cc(C#N)ccc3c1C2=O [Compound 32, 8-(1-(3-(dimethylamino)propyl)-1H-pyrazol-4-yl)-9-ethyl-6,6-dimethyl-11-oxo-6,11-dihydro-5H-benzo[b]carbazole-3-carbonitrile] | – | – | 0% | – | – | – | – | 0% | – | – | – | Conc. [14]: 80 nM; KINOMESCAN interactions mapped (panel of 456 kinases): 39 |

— patent publication US11066363B2, “Substituted 6,11-dihydro-5H-benzo[B]carbazoles as inhibitors of ALK and SRPK” (Dana-Farber Cancer Institute, Inc., priority 2015, dated 2021)
